Measurements published in paper PMC12429880, “EGFR-Targeted Photodynamic Treatment of Triple Negative Breast Cancer Cell Lines Using Porphyrin–Peptide Conjugates: Synthesis and Mechanistic Insight” (Molecules, 2025).

Experiments:
MDA-MB453 [1] = assay: Intrinsic (dark) cytotoxicity, MTT assay without photoactivation; format: cell-based; conditions: no photoactivation, ten times the maximum PDT concentration (10 µM), mean ± SD of 5 independent experiments, in % (unit assumed)
Method: (§1) The photodynamic effect of conjugates 6–8 on cell viability, compared to the reference compound 2, was evaluated using the MTT ([3-(4,5-dimethylthiazol-2-yl)-2,5-diphenyltetrazolium bromide]) assay. Briefly, 3.5 × 10^3 cells per well were seeded in 96-well plates and incubated for 48 h to allow for adherence and growth. Following this incubation period, cells were treated with increasing concentrations of the test compounds (ranging from 1 to 1000 nM), prepared in complete culture medium. All compound dilutions were prepared to ensure a final DMSO concentration of 0.1% (v/v), which is considered non-toxic. Control samples included cells cultured in complete medium alone, as well as a vehicle control treated with 0.1% DMSO in the absence of any compound (PS treatment was omitted). 24 h after treatment with PS, the medium was replaced with 1X PBS. Photoactivation was performed using a 500 W white tungsten halogen lamp, delivering an irradiance of 22 mW/cm^2, corresponding to a total fluence of 158 J/cm^2 over a 2 h irradiation period. To prevent thermal damage from the light source, a cooling system was employed by placing a circulating water filter between the lamp and the irradiation area to dissipate excess heat. Following irradiation, the PBS was replaced with fresh, PS-free culture medium, and cells were incubated at 37 °C. 24 h later, MTT was added to each well at a final concentration of 0.4 mg/mL, and cells were incubated for 3 h at 37 °C to allow the MTT metabolization in viable cells. The resulting formazan crystals were then dissolved in DMSO. Optical density was measured at 590 nm using an Infinite® 200 PRO plate reader (Tecan Life Sciences, Switzerland), and the resulting data were analyzed by non-linear regression using GraphPad PRISM 9.2.0 software (GraphPad Software Inc., San Diego, CA, USA), and IC50 values were extrapolated from these curves.
(§2) The potential intrinsic cytotoxicity of the compounds was assessed under identical experimental conditions, except that the photoactivation step was omitted. […]

MCF7 = assay: as above; format: cell-based; conditions: no photoactivation, ten times the maximum PDT concentration (10 µM), mean ± SD of 5 independent experiments, in % (unit assumed)
Method: as §1, §2

MDA-MB231 [2] = assay: as above; format: cell-based; conditions: no photoactivation, ten times the maximum PDT concentration (10 µM), mean ± SD of 5 independent experiments, in % (unit assumed)
Method: as §1, §2

MDA-MB453 [3] = assay: Intracellular ROS generation (DCFH-DA); format: cell-based; conditions: 24 h at IC50, 2 h irradiation with 10 μM DCFH-DA, 3 independent experiments
Method: (§3) Intracellular ROS generation was assessed using the fluorogenic probe 2′,7′-dichlorodihydrofluorescein diacetate (DCFH-DA; Invitrogen, Molecular Probes). Once internalized, DCFH-DA is hydrolyzed by intracellular esterases to form non-fluorescent dichlorodihydrofluorescein (DCFH), which ROS subsequently oxidizes to the highly fluorescent dichlorofluorescein (DCF). MDA-MB453 and MDA-MB231 cells were seeded in black 96-well plates and treated with the respective PSs at their IC50 concentrations for 24 h. Cells were then irradiated in the presence of 10 μM DCFH-DA. To quantify ROS production, fluorescence intensity was measured using a fluorescence microscope (excitation: 488 nm; emission: 520 nm). Quantitative analysis of fluorescence intensity, expressed in arbitrary fluorescence units, was performed using ImageJ software, version 1.53e, and normalized to untreated control samples.

MDA-MB231 [4] = assay: Intracellular ROS generation (DCFH-DA); format: cell-based; conditions: 24 h at IC50, 2 h irradiation with 10 μM DCFH-DA, 3 independent experiments
Method: as §3

[5] = Photostability (photobleaching) under irradiation; format: physicochemical
Source text: Compounds incorporating photosensitizing chromophores, such as tetrapyrrolic macrocycles, are susceptible to ROS-mediated photodegradation upon irradiation. Photostability of PSs is a critical parameter for achieving safe, effective, and precise PDT. It ensures sustained generation of ROS, minimizes the formation of potentially toxic or mutagenic degradation products, and preserves the structural and photophysical integrity of the PS during systemic circulation and tumor accumulation. High photostability is particularly important in delayed-activation protocols, enabling selective localization in target tissues. […] Thus, before assessing the photodynamic activity of the conjugates in TNBC cell lines, the photostability of 2 and conjugates 6, 7, and 8 was evaluated under the same conditions employed for the cell viability assays and the other biological studies reported in the present study. […]
To assess whether the peptide moiety underwent photoinduced degradation, samples of porphyrin 2 and its conjugates 6–8 were recovered and analyzed by HPLC at the end of the irradiation period.
For the chemical and biological analyses a 500 W tungsten white halogen lamp was used. […] The lamp has an irradiance of 22 mW/cm^2 (an average value determined between 380 and 780 nm with a Licor-1800 spectroradiometer, Li-COR, Bad Homburg, Germany), equating to 158 J/cm^2 of fluence over 2 h. […]

Soret band intensity retained after irradiation ([5]; 10 μM in PBS, 2 h exposure to 500 W tungsten-halogen lamp, 22 mW/cm^2, 158 J/cm^2, UV-Vis): approximately 90%
Compound: COC(=O)c1ccc(-c2c3nc(c([N+](=O)[O-])c4ccc([nH]4)c(-c4ccc(C(=O)OC)cc4)c4nc(cc5ccc2[nH]5)C=C4)C=C3)cc1 [compound 2, 10-Nitro-5,15-bis(4-carbomethoxyphenyl)porphyrin]
Survival fraction (dark toxicity) (MDA-MB453 [1]): 90.8 ± 0.66
Survival fraction (dark toxicity) (MCF7): 89.7 ± 1.16
Survival fraction (dark toxicity) (MDA-MB231 [2]): 91.2 ± 1.26
Intracellular ROS levels (MDA-MB453 [3]): higher levels of intracellular ROS
Intracellular ROS levels (MDA-MB231 [4]): higher levels of intracellular ROS
HPLC analysis at the end of the irradiation period (structural integrity) ([5]; after 2 h irradiation with 500 W tungsten-halogen lamp, HPLC): No shifts in retention times were observed
